The assay can be described thus: Biochemical Assay: Test compounds were placed in a Greiner Bio-One (Monroe, N.C.) 1536-well black solid bottom assay plate. 200 millimolar (mM) Tris HCl, pH 7.4, 100 micromolar (μM) EDTA and 0.01% TWEEN-20, final concentration, was used as the assay buffer. The LDHA reagent was 2 nanomolar (nM) Human LDHA (Meridian Life Science, Inc., Memphis, Tenn.), final concentration, in assay buffer. The substrate reagent was 0.06 mM NADH and 0.2 mM sodium pyruvate, final concentration, in assay buffer. The resazurin/diaphorase coupling reagent was 0.037 mM resazurin and 0.133 milligrams per milliliter (mg/mL) diaphorase, final concentration, in assay buffer. The inhibition of LDHA activity was measured by fluorescence emission. For orientation: Alamar Blue is a resazurin reagent that responds to reducing activity.

What is called IC50 is the midpoint of a concentration-inhibition curve.

`N[S+](=O)([O-])c1ccc(Cc2c(-c3cccc(-c4ccc(C(F)(F)C(F)(F)F)cc4)c3)nn(-c3nc(C(=O)O)cs3)c2CCC2CC2)cc1F`: the IC50 result is “in the range around 0.55 µM”. With `Cc1ccc(C#Cc2cccc(-c3nn(-c4nc(C(=O)NC#N)cs4)c(CC4CC4)c3Cc3ccc([SH+](N)[O-])c(F)c3)c2)s1` (centres undefined), the 50% inhibitory concentration (IC50) result was “in the range around 29 µM”. As for `N[SH+]([O-])c1ccc(Cc2c(-c3cccc(-c4cc(F)cc(F)c4)c3)nn(-c3nc(C(=O)O)cs3)c2CC2CC2)cc1F` (centres undefined), the IC50 was below 0.1 µM. `NS(=O)(=O)c1ccc(Cc2c(-c3cccc(-c4nc5ccccc5[nH]4)c3)nn(-c3nc(C(=O)O)cs3)c2CC2CC2)cc1F` registered a concentration for half-maximal inhibition (IC50) below 0.1 µM. For `COc1ccc(-c2cccc(-c3nn(-c4nc(C(=O)O)cs4)c(CC4CC4)c3Cc3ccc([SH+](N)[O-])c(F)c3)c2)cc1Cl` (centres undefined), the IC50 entry is “in the range around 0.55 µM”. `CC(C)c1ccc(-c2cccc(-c3nn(-c4nc(C(=O)O)cs4)c(CCC4CC4)c3Cc3ccc([S+](N)(=O)[O-])c(F)c3)c2)cc1`: the IC50 result was “in the range around 0.55 µM”.

`N[S+](=O)([O-])c1ccc(Cc2c(-c3cccc(-c4ccc5c(c4)CCCC5)c3)nn(-c3nc(C(=O)O)cs3)c2CC2CC2)cc1F`: the IC50 result is “in the range around 0.55 µM”. In turn, `Cc1ccc(C#Cc2cc(-c3nn(-c4nc(C(=O)O)cs4)c(CC4CC4)c3Cc3ccc([SH+](N)[O-])c(F)c3)ccc2F)s1` (centres undefined) returned an IC50 below 0.1 µM. On to `CC(C)Cc1ccc(-c2cccc(-c3nn(-c4nc(C(=O)O)cs4)c(CCC4CC4)c3Cc3ccc([S+](N)(=O)[O-])c(F)c3)c2)cc1`, for which the IC50 entry is “in the range around 0.55 µM”. Turning to `CN(C)c1ccc(-c2cccc(-c3nn(-c4nc(C(=O)O)cs4)c(CC4CC4)c3Cc3ccc([SH+](N)[O-])c(F)c3)c2)cc1` (centres undefined), the IC50 was below 0.1 µM. With `Cc1ccc(C#Cc2cccc(-c3nn(-c4nc(CO)cs4)c(CC4CC4)c3Cc3ccc([SH+](N)[O-])c(F)c3)c2)s1` (centres undefined), the IC50 is above 57 µM. Compound `N[SH+]([O-])c1ccc(Cc2c(-c3cccc(-c4cccc(Cl)c4)c3)nn(-c3nc(C(=O)O)cs3)c2CC2CC2)cc1F` (centres undefined) showed an IC50 below 0.1 µM.

Turning to `N#Cc1ccc(-c2cccc(-c3nn(-c4nc(C(=O)O)cs4)c(CC4CC4)c3Cc3ccc([SH+](N)[O-])c(F)c3)c2)cc1` (centres undefined), the IC50 was below 0.1 µM. The value for `CC(C)c1cccc(-c2cccc(-c3nn(-c4nc(C(=O)O)cs4)c(CC4CC4)c3Cc3ccc([SH+](N)[O-])c(F)c3)c2)c1` (centres undefined) was below 0.1 µM.
